Measured values taken from patent US12404241B2 (Celgene Corporation, priority 2018, dated 2025).

Target: T1, AR (Homo sapiens, UniProt P10275)
T1 construct: endogenous in cells; host or cells: VCaP cells
T1 sequence (P10275 1-920): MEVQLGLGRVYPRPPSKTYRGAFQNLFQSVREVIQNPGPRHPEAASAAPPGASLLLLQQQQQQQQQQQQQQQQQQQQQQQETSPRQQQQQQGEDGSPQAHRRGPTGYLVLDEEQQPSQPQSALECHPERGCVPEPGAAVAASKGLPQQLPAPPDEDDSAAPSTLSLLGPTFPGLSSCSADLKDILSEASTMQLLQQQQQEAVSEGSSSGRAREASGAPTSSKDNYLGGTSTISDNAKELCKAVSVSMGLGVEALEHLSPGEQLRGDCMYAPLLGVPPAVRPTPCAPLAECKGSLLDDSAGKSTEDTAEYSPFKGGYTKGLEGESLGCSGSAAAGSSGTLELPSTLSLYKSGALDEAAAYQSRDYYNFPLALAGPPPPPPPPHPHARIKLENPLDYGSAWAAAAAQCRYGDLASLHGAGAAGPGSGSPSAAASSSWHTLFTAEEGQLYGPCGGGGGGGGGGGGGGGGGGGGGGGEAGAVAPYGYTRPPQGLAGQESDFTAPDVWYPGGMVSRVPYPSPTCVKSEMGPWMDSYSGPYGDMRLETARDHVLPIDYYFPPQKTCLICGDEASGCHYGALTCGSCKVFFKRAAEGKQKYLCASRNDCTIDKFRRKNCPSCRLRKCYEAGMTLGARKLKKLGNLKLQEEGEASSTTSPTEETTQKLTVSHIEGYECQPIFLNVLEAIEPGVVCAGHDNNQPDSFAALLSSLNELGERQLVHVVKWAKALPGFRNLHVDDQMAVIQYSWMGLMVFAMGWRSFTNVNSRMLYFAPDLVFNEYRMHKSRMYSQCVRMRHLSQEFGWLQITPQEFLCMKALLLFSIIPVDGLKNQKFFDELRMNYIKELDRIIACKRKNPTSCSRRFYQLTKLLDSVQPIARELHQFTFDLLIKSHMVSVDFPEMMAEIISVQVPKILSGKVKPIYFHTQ
Assay: VCAP AR Degradation Assay
Type: cell-based
Conditions: for Y (AR degradation efficiency, % of DMSO control): class symbols *; for DC50: class symbols A-C, read-out: DC50
Summary of the method: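 AR protein in lysates quantified by sandwich ELISA after 24 h exposure of VCaP cells at 37 °C to 10 concentrations (1:3 steps, 5 μM top, final). Four-parameter logistic fit of percent-of-DMSO levels gave DC50 (50% degradation), EC50 and minimal AR level Y.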

SMILES	Y (AR degradation efficiency, % of DMSO control)	DC50 [nM]
C[C@@H]1CN(CCOc2ccc(N3C(=S)N(c4ccc(C#N)c(C(F)(F)F)c4)C(=O)C3(C)C)cc2C2CC2)C[C@H](C)N1CC(=O)Nc1cccc(N[C@@H]2CCC(=O)NC2=O)c1 [Example 288, 2-((2R,6S)-4-(2-(4-(3-(4-cyano-3-(trifluoromethyl)phenyl)-5,5-dimethyl-4-oxo-2-thioxoimidazolidin-1-yl)-2-cyclopropylphenoxy)ethyl)-2,6-dimethylpiperazin-1-yl)-N-(3-((R)-2,6-dioxopiperidin-3-ylamino)phenyl)acetamide]	* (0<Y<=25%)	< 100
C[C@@H]1CN(CCOc2ccc(N3C(=S)N(c4ccc(C#N)c(C(F)(F)F)c4)C(=O)C3(C)C)cc2C2CC2)C[C@H](C)N1CC(=O)Nc1cccc(N[C@H]2CCC(=O)NC2=O)c1 [Example 289, 2-((2R,6S)-4-(2-(4-(3-(4-cyano-3-(trifluoromethyl)phenyl)-5,5-dimethyl-4-oxo-2-thioxoimidazolidin-1-yl)-2-cyclopropylphenoxy)ethyl)-2,6-dimethylpiperazin-1-yl)-N-(3-((S)-2,6-dioxopiperidin-3-ylamino)phenyl)acetamide]	* (0<Y<=25%)	< 100
CCc1cc(N2C(=S)N(c3ccc(C#N)c(Cl)c3)C(=O)C2(C)C)ccc1OCCN1C[C@@H](C)N(CC(=O)Nc2cccc(NC3CCC(=O)NC3=O)c2)[C@@H](C)C1 (stereo partly drawn) [Example 291, 2-((2S,6R)-4-(2-(4-(3-(3-chloro-4-cyanophenyl)-5,5-dimethyl-4-oxo-2-thioxoimidazolidin-1-yl)-2-ethylphenoxy)ethyl)-2,6-dimethylpiperazin-1-yl)-N-(3-((2,6-dioxopiperidin-3-yl)amino)phenyl)acetamide]	* (0<Y<=25%)	< 100
